Experimental data reported in article PMC6002838 (The Journal of antibiotics, 2017).
In brackets after ≈: the same amount, converted by molar mass.

Legend:
[1] = test system: KSHV LANA latency antigen; assay type: cell-based, Kaposi Sarcoma Herpesvirus (KSHV); details: 100 μM, 6 days, BC3 cells, flow cytofluorometry
MDM2-p53 complex = MDM2-p53 complex (Homo sapiens, UniProt Q00987); assay: MDM2-p53 complex inhibition assay; assay type: binding; details: for inhibition at 100 µM: read-out: Inhibition of MDM2-p53 complex formation (pre-treat)
MDM2-p53 complex, sequence (Q00987 whole entry, one chain of several): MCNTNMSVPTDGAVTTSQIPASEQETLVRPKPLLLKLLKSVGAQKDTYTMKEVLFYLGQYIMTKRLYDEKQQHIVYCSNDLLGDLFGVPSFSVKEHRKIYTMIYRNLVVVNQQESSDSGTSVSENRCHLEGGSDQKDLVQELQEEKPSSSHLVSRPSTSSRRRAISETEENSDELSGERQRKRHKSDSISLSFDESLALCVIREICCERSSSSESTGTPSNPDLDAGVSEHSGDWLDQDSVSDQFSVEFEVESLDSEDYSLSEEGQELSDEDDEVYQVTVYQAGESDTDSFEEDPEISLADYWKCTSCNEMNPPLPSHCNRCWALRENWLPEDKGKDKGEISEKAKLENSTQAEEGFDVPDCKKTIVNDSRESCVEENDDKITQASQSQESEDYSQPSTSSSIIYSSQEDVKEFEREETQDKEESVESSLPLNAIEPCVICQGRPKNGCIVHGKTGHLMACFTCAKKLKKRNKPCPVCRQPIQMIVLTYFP

[2] = Cytotoxicity on HUVEC cells; assay type: cell-based; details: human, HUVEC cells (primary human umbilical cord endothelial cells)
[3] = Cytotoxicity on THP-1 cells; assay type: cell-based; details: human, THP-1 cells (KSHV-negative macrophage cell line)
[4] = Cytotoxicity on BC3 cells; assay type: cell-based; details: human
[5] = test system: latent KSHV DNA in BC3 cells; assay: qPCR detection of latent KSHV DNA; assay type: cell-based, Kaposi Sarcoma Herpesvirus (KSHV)

| SMILES | LANA inhibition [1] [%] | Residual fluorescence (RF) [1] | inhibition at 100 µM (MDM2-p53 complex) [%] | CC50 at 6 days [2] [µg/mL] | CC50 at 6 days [3] [µg/mL] | CC50 at 6 days [4] [µg/mL] | SI (CC50/EC50) [5] | Disruption of MDM2-p53 complex (post-treat) (MDM2-p53 complex; 100 μM, compounds added after formation of the complex) |
| --- | --- | --- | --- | --- | --- | --- | --- | --- |
| Nc1ccc(S(N)(=O)=O)cc1 [SA4, sulfanilamide] | 78±6 | 21% | 56 |  |  |  |  |  |
| Cc1cc(NS(=O)(=O)c2ccc(N)cc2)no1 [BC6, sulfamethoxazole] |  |  | 50 |  |  |  |  |  |
| [H]/N=C(/N)NS(=O)(=O)c1ccc(N)cc1 [SG3, sulfaguanidine] |  |  | ~48 | 500 ± 125 (≈ 2330 µM) | 125 ± 31 (≈ 583 µM) | 100 ± 25 (≈ 467 µM) | 4.76 |  |
| Nc1ccc(S(=O)(=O)Nc2nccs2)cc1 [ST5, sulfathiazole] |  |  | ~70 | 250 ± 62 (≈ 979 µM) | 30 ± 15 (≈ 117 µM) | 100 ± 25 (≈ 392 µM) | 16.6 | about 48% |
| CS(=O)(=O)Nc1ccc([N+](=O)[O-])cc1Oc1ccccc1 [Nimesulide, nimesulide] | 54±5 | about 46% |  |  |  |  |  |  |
